Results on four compounds are retold here after patent publication US20070117220A1, “METHOD AND APPARATUS FOR MEASURING FLUORESCENCE POLARIZATION IN LAB-ON-A-CHIP” (priority 2005, published 2007).

Test [1] concerns the target T1, streptavidin (Streptomyces avidinii, UniProt P22629). The test can be described thus: Fluorescence polarization of biotin/streptavidin complex in lab-on-a-chip microchannel, apparatus of FIG. 2 with optical chopper (Embodiment 3). Format: binding. The method, then: Fluorescence polarization for the complex of biotin and streptavidin was measured using the apparatus of FIG. 2 including the optical chopper of the invention. In this Embodiment, a lab-on-a-chip made of glass and composed of a microchannel having a depth of 12 μm and a width of 79 μm was used to measure fluorescence polarization for a complex of biomolecule-fluorescently labeled biomaterial.
For the measurement, the samples were respectively filled in the reservoir of the lab-on-a-chip as following three cases: (A) wherein 4 μM of tetramethylrhodamine TMR was filled in the reservoir; (B) wherein 4 μM of TMR-biotin was put into the reservoir; and (C) wherein 4 μM of TMR-biotin and 1 μM of streptavidin were filled in the reservoirs.
Fluorescence polarizations FP for the above samples were measured in the microchannel of the lab-on-a-chip using the apparatus of FIG. 2 including the optical chopper.
As a result, in case of (A), fluorescence polarization was measured 0.047; in case of (B), it was 0.062; and in case of (C), it was 0.240, which were increased the complex of TMR-biotin and streptavidin was formed as shown in FIG. 7A.
In general terms: In fluorescence polarisation assays a small probe gives low polarisation when free and higher when bound to something large.

In test [2] the target is T1, streptavidin. Kind of test: Fluorescence polarization of biotin/streptavidin complex in lab-on-a-chip microchannel, apparatus of FIG. 2 without optical chopper (Embodiment 2). Format: binding. As for the experimental part: Fluorescence polarization FP for the complex of biotin and streptavidin in a lab-on-a-chip was measured using the apparatus of FIG. 2, wherein the optical chopper was not inserted. In this Embodiment, a lab-on-a-chip made of glass and composed of a microchannel having a depth of 12 μm and a width of 79 um was used instead of the 100 μL cuvette. After filling 100 μM of tetramethylrhodamine TMR solution in the microchannel of the lab-on-a-chip using a vacuum pump, a G-factor value was obtained in the same manner described above in Embodiment 1. […] Subsequently, the above samples filled in the reservoirs 1 and 2 were injected into the microchannel using the vacuum pump 6 of the lab-on-a-chip to measure fluorescence polarizations FP for the samples at a detection point 5 of the lab-on-a-chip.
As a result, in case of (A), fluorescence polarization was measured 0.085; in case of (B), it was 0.097; in case of (C), it was 0.036; in case of (D), it was 0.040; and in case of (E), it was 0.064, which were deviated from the expectations of increases in fluorescence polarization FP as not increased as the complex of TMR-biotin and streptavidin was formed as shown in FIG. 6A.
Fluorescence polarizations were recalculated from the measured values by subtracting the offset values, the offset being measured in the microchannel when only the buffer solution was filled. […]

Test [3] relates to TMR-α-casein. Kind of test: Protease assay by fluorescence polarization of TMR-α-casein substrate, commercial fluorescence spectrometer. It is filed as biochemical. The note with it: time course, varying enzyme concentrations (unit/mL); FIGS. 9A-9D. The method, then:
Changes of fluorescence polarization FP were measured using the method and apparatus for measuring fluorescence polarization of the present invention, employing TMR-α-casein as a substrate, composed of TMR as a fluorescent probe and α-casein, a universal protein substrate reacted with various proteases.
First, TMR-α-casein, a fluorescently labeled substrate for proteases, was prepared by applying one of the well-known methods [Analytical Biochemistry (,1996) 243, 1-7] as follows.
10 mg/mL of α-casein (sigma) and 5 mg/mL of 5-carboxytetramethylrhodamine succinimidyl ester were mixed in 0.1 M sodium bicarbonate buffer solution (pH 9.0) for reaction at room temperature for two and a half hours. The resulting TMR-α-casein was purified by passing the reaction mixture over a HiTrap desalting column (Sephadex G-25 Amersham Bioscience), and used after quantitation of the amounts of protein and fluorescence.
Proteinase K, trypsin, papain and elastase were used as proteases to react at increasing concentrations. First, as a comparative example, the process that the TMR-α-casein substrate was degraded by the proteases was analyzed using a commercial fluorescence spectrometer (Perkin Elmer). […]

The subject of test [4] is TMR-α-casein. The test can be described thus: On-chip protease assay by fluorescence polarization of TMR-α-casein substrate, lab-on-a-chip with optical chopper. The note with it: 1 μM TMR-α-casein final in channel; reaction time 5.1 seconds; FIGS. 10A-10D. It is filed as biochemical. The method, then:
Next, the protease assays were carried out using an apparatus for measuring fluorescence polarization including the optical chopper of FIG. 2 on a lab-on-a-chip of glass composed of a channel 1 C1, in which substrates or enzymes flowed, and a channel 2 C2, in which the reaction occurred, the channels having a depth of 12 μm and a width of 79 μm as depicted in FIG. 8.
For on-chip protease assays, the substrates and the enzymes should mix completely prior to the enzyme reactions. […] […] Therefore, the reaction time was confirmed to be 5.1 seconds after mixing of the substrate with the enzymes.
Subsequently, to carry out the protease assays in the lab-on-a-chip,2 μM of TMR-α-casein (the final concentration in the channel was 1 μM) was placed in a substrate reservoir and the respective proteases were placed in an enzyme reservoir at increasing concentrations in the same manner as the comparative example. Then, the two substances were allowed to flow into a channel 2 C2, a main channel, to cause a reaction. Fluorescence polarization FP was then measured at the detection point, positioned 32 mm away from the junction, from which the substrates and the enzymes flowed in.
Again, it was noted that fluorescence polarization values plateaued when the concentration of the enzymes reached at the point generating a specific rate or more.

T1 sequence (P22629 25-183, species assumed): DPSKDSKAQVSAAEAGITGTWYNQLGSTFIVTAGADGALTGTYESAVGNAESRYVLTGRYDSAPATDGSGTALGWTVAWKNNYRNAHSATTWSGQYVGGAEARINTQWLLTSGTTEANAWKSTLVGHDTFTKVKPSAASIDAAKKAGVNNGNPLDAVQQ

In the case of `O=C(O)CCCC[C@@H]1SC[C@@H]2NC(=O)N[C@@H]21` [D-biotin], the “change of fluorescence polarization by competitive inhibition of TMR-biotin/streptavidin binding” value on streptavidin [1] (increasing concentrations of D-biotin supplied to the complex (4 μM TMR-biotin, 1 μM streptavidin) in the microchannel, FIG. 7B) was “decreased with the increasing concentrations”.
`CN(C)c1ccc2c(-c3ccccc3C(=O)[O-])c3ccc(N(C)C)cc3[o+]c2c1` [TMR, tetramethylrhodamine] yielded a fluorescence polarization at streptavidin [1] (4 μM probe only, microchannel, optical chopper) of 0.047. In addition, the “fluorescence polarization recalculated by subtracting the offset values” on streptavidin [2] (1.25 μM probe only in reservoir 1, buffer offset subtracted) was 0.020. Also, the “fluorescence polarization (as measured, offset not subtracted)” value on streptavidin [2] (1.25 μM probe only in reservoir 1, no chopper) is listed as 0.085.
With trypsin, the “change of fluorescence polarization values of TMR-α-casein as the reaction proceeded” value in the test with TMR-α-casein [3] is “decreased”. Moreover, the “change of fluorescence polarization values of TMR-α-casein with enzyme concentration” value in the test on TMR-α-casein [4] is “decreased with increasing concentrations”.
Take elastase: the “change of fluorescence polarization values of TMR-α-casein as the reaction proceeded” value with TMR-α-casein [3] is on record as “decreased”. Further, the “change of fluorescence polarization values of TMR-α-casein with enzyme concentration” value in the test on TMR-α-casein [4] was “decreased with increasing concentrations”.
